From ChEMBL document CHEMBL1134206 (Bioorg Med Chem Lett, 2001)

Experiments:
[1] = molecular target: T1, 5-hydroxytryptamine receptor 1A (Rattus norvegicus, UniProt P19327); test: Binding affinity to 5-hydroxytryptamine 1A receptor of rat hippocampus with [3H]8-OH-DPAT as radioligand; type: tissue-based
T1 sequence (P19327 whole entry): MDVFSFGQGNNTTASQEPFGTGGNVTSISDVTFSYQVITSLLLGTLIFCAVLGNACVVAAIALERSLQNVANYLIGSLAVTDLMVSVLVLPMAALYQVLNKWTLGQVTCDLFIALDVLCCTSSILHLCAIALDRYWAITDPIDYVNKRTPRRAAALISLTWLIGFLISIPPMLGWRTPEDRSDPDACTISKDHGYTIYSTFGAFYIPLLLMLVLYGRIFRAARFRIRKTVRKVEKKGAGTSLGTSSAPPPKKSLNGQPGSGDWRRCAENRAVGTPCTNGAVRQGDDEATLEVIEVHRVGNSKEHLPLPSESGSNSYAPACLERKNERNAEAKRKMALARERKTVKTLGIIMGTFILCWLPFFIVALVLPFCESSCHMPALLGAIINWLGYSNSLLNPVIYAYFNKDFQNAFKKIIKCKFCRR

[2] = molecular target: T2, 5-hydroxytryptamine receptor 1A (Rattus norvegicus) (UniProt P19327); test: Ratio of binding affinity to 5-HT 1A and D2 receptor
T2 sequence (whole entry): T1 sequence (P19327 whole entry)

D(2) dopamine receptor = D(2) dopamine receptor (Rattus norvegicus, UniProt P61169); test: Binding affinity to Dopamine receptor D2 in of rat striatum membrane with [3H]- raclopride as radioligand; type: cell membranes
D(2) dopamine receptor, sequence (P61169 whole entry): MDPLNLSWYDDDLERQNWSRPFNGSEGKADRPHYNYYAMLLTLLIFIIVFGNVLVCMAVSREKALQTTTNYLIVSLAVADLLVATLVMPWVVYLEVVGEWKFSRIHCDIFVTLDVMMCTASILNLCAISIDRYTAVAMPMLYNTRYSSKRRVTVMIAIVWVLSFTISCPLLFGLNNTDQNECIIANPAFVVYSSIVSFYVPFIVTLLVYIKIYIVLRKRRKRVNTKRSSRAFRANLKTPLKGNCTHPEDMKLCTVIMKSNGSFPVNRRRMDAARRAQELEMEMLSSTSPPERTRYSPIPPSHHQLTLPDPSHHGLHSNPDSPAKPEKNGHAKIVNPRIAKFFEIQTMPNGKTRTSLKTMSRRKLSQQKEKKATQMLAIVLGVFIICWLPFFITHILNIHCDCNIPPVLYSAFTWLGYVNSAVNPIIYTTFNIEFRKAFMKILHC

Rattus norvegicus = species: Rattus norvegicus; test: Neuronal protective effect of compound against ischemic brain damage in rat t-MCAO model; type: functional

| IC50 [1] | Ratio [2] | IC50 (D(2) dopamine receptor) | Compound | Inhibition (Rattus norvegicus) |
| --- | --- | --- | --- | --- |
| 0.018 µM | – | – | O=C1c2ccccc2OC=CN1CCCCN1CCN(c2ncccn2)CC1 | – |
| 0.0102 µM | 108 | 1.1 µM | CC1=COc2ccccc2C(=O)N1CCCCN1CCN(c2ncccn2)CC1 | – |
| – | – | – | Cc1c(N(C)C)c(=O)n(-c2ccccc2)n1C [AMINOPYRINE] | 21% |
| – | 66 | – | O=C1c2ccccc2OC=C(Cl)N1CCCCN1CCN(c2ccccn2)CC1 | – |
| 0.00159 µM | 125 | 0.199 µM | O=C1c2ccccc2OC=C(Cl)N1CCCCN1CCN(c2ncccn2)CC1 | – |

| Compound | IC50 [1] | Ratio [2] | IC50 (D(2) dopamine receptor) | Inhibition (Rattus norvegicus) |
| --- | --- | --- | --- | --- |
| O=C1c2ccccc2OC=C(Cl)N1CCCCN1CC=C(c2ccccn2)CC1 [PICLOZOTAN] | – | 179 | 0.084 µM | 63% |
